Reference: US20100048714A1, “Methods and Compositions Related to Inhibition of Ceramide Synthesis” (University of Utah Research Foundation, priority 2006, published 2010)
Each block holds one molecule with its values, some of them ahead of it.

Columns and labels:
Sprague dawley rats [1] = test: Hyperinsulinemic euglycemic clamps of dexamethasone treated rats; format: in vivo, rat; details: plasma, 60 minute steady state; Dexamethasone-treated (Saline or Myriocin); mean ± standard error, n=4
Sprague-Dawley rats [2] = test: Glucose tolerance test (glucose 1 g/kg IP) in dexamethasone-treated rats; format: in vivo, rat; details: dexamethasone vs vehicle
Experimental: (§1) (A) Sprague-Dawley rats were treated with myriocin (300 μg/Kg, IP, solid bars) or saline (open bars) for two weeks prior to giving administering dexamethasone (40 μg/Kg, IP) or vehicle (5% ethanol) every 12 hours for 36 hours. Animals were euthanized by CO2 inhalation, livers were removed, and ceramide levels were assessed as described in SOM-Methods. Shown are mean ceramide levels+/−S.E.M, n=6 per group. The asterisk denotes that the sample was statistically different from vehicle-treated controls, p<0.05, student's t-test. (B) Livers were obtained as in A, above, and protein and mRNA were extracted as described in SOM-Methods. Levels of transcripts (solid bars) encoding serine palimitoyl transferase isoforms 1 and 2 (SPT1 and SPT2), dihydroceramide synthases (DCS) TL1, UOG, and TRH3, glucosylceramide synthase (GCS), and acid ceramidase (AC) transcripts were obtained by reverse-transcriptase polymerase chain reaction, normalized to β-actin. SPT2 protein levels (white bars) were detected by immunoblotting with an antibody from Cayman Chemicals (Ann Arbor, Mich.) and quantified on a Kodak Image Station 2000R (Rochester, N.Y.). Data represent the fold-change in transcript or protein in dexamethasone-treated animals relative to vehicle controls. […] (C and D) Rats were challenged with glucose (1 g/kg) given intraperitoneally (IP) following treatment with dexamethasone (squares), ethanol carrier (triangles), myriocin (open shapes), or saline (solid shapes) as in A, above. Tail vein blood (3 μl) was sampled for glucose (C)(using the Glucometer Elite from Bayer Corp., Tarrytown, N.Y.) or insulin (D) (using an Elisa kit from Linco Diagnostics, Springfield, Mo.). […] (E-G) Hyperinsulinemic euglycemic clamps were performed on animals (n=4 per group) treated as in A, above, as described in SOM-Methods. Data from animals receiving myriocin are depicted in solid bars. (E) The glucose infusion rate required to maintain normal glycemia during insulin infusion ([…]) was calculated as the average infusion rate during the 60 minute steady state. (F) Hepatic glucose output was estimated by the disappearance of [^14C] glucose from a bolus dose given during the steady state minus the glucose infusion rate. (G) Disappearance of a bolus dose of [^3H] 2-deoxyglucose from the bloodstream was used to estimate the rate of whole body glucose uptake.
Tail vein blood (3 μl) was sampled for glucose determination (Hitachi 911 clinical chemistry analyzer, Roche, Indianapolis, Ind. or Glucometer Elite, Bayer Corp., Tarrytown, N.Y.)-30 minutes, immediately before and 15, 30, 45, 60, 90, and 120 min after glucose administration. Additionally, serum was collected and analyzed for insulin by Elisa (Linco Diagnostics, Springfield, Mo.).

Sprague dawley rats [3] = test: Hyperinsulinemic euglycemic clamps of dexamethasone treated rats; format: in vivo, rat; details: plasma, Dexamethasone-treated (Saline or Myriocin), mean ± standard error, n=4
Experimental: as §1
To definitively evaluate effects on insulin sensitivity, as well as to distinguish whether the treatment protocols differentially affected glucose uptake in skeletal muscle or hepatic output by the liver, hyperinsulinemic-euglycemic clamps with D-[U-^14C] glucose and 2-deoxy-D-[2,6-^3H] glucose tracers were performed.
Clamps were performed in conscious unrestrained animals using swivels and tethers (Instech, Plymouth Meeting, Pa.) to allow uninterrupted movement of the animal without disruption of infusion lines. Hyperinsulinemia was initiated by intravenous infusion of insulin (10 mU/kg/min at a flow rate of 4 μL/min). Blood was sampled from arterial lines in 7 minute intervals and analyzed with a Beckman Glucose analyzer II (Beckman Coulter, Fullerton, Calif.). Euglycemia was maintained by variable infusion of 20% dextrose. Steady state was achieved approximately 90 minutes after initiating hyperinsulinemia and maintained for 30 minutes. Glucose infusion rates were calculated as the average glucose infusion rate during the 30 minute steady state. Additional blood samples were taken before initiating hyperinsulinemia and at the end of the clamp for analysis of insulin and free fatty acids.

Sprague-Dawley rats [4] = test: Lipid infusion with hyperinsulinemic euglycemic clamps; format: in vivo, rat; details: for Glucose, During Clamp / FFA, Before Clamp / FFA, Before Infusion / FFA, During Clamp / Glucose, Before Clamp / Glucose, Before Infusion / Insulin, Before Clamp / Insulin, Before Infusion / Insulin, During Clamp: plasma, mean ± standard error, n=4; for Glucose, During Clamp: 30 minute steady state
From the text: The more common mechanism by which insulin resistance likely develops in the obese is through the accumulation of fats in tissues not-suited for lipid storage. Indeed, intramyocellular lipid levels inversely correlate with insulin sensitivity, and are one of the best predictors of insulin resistance in humans. To mimic this condition in rats, a 20% lard oil-heparin infusate was delivered into the bloodstream of Sprague-Dawley rats via jugular catheters. […] To assess muscle insulin sensitivity during the infusion, hyperinsulinemic-euglycemic clamps were performed on conscious, unrestrained rats during the terminal 90 minutes of the protocol. Lard oil infusion decreased insulin-stimulated glucose disposal to 47% of glycerol treated control subjects (FIG. 3C). […] Differences in the glucose infusion rats could not be accounted for by the slight differences in the glucose concentration that was achieved during the clamp nor to differences in steady-state insulin concentrations (Table 3).
Male Sprague-Dawley rats (˜250 grams) were randomly divided into nine different groups. Glycerol, 20% lard oil, or 20% soy oil emulsions were prepared as previously described (Stein 1997) and infused at a constant rate of 5 mL/Kg/hour. To activate lipoprotein lipase, heparin (6 units/hour) was added to the triglyceride emulsions. Lipids were infused in animals treated with control injections (normal saline), myriocin (100 μg/Kg IP) or cycloserine (50 mg/Kg IP). Drugs were given 12 hours prior to lipid infusion and equivalent doses were given intravenously at the time of infusion. […] Following lipid infusion animals were deeply anesthetized with sodium pentobarbital and soleus muscles were rapidly dissected out and rapidly frozen in liquid nitrogen.
Clamps were performed in conscious unrestrained animals using swivels and tethers (Instech, Plymouth Meeting, Pa.) to allow uninterrupted movement of the animal without disruption of infusion lines. Hyperinsulinemia was initiated by intravenous infusion of insulin (10 mU/kg/min at a flow rate of 4 μL/min).

soleus muscles = test: Isolated soleus muscle strips incubated with free fatty acids; details: cycloserine 1 mM or myriocin 10 μM
DES 1 = target: T1, DES 1 (Homo sapiens, UniProt O15121); details: Zheng et al. 2006; Szkudelski et al. 2006; cited from earlier work
T1 sequence (O15121 1-323): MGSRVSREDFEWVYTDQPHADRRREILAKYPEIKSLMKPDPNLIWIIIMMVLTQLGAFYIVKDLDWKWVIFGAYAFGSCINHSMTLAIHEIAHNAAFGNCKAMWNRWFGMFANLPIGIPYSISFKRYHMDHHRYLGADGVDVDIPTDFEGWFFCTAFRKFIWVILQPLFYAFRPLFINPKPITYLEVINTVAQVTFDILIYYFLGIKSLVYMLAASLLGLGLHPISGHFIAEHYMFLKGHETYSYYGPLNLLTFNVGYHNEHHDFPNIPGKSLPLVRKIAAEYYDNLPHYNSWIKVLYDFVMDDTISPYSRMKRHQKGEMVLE

[5] = system: genes which control ceramide synthesis or degradation; test: RT-PCR of genes which control ceramide synthesis or degradation after TNFα; format: cell-based
Experimental: Using RT-PCR, mRNA levels of serine palmitoyltransferase subunits (LCB1 and LCB2), acid ceramidase (AC), glucosylceramide synthase (GCS), ceramide kinase (CerK), and ceramide synthase isoforms 1-6 (Cers/Lass 1-6) were evaluated.
The possibility that TNFαα-stimulation of lipolysis can account for the increase in ceramide by stimulating the formation of intracellular palmitoyl-CoA, which could serve as a precursor for ceramide biosynthesis, was considered. […] Instead, it appears that TNFα regulates the expression or activity of enzymes that control intracellular ceramide levels. Using RT-PCR, changes in mRNA levels of genes which control ceramide synthesis or degradation were evaluated. […] The analysis was extended to consider several ceramide synthase (CerS/LASS) isoforms, which selectively catalyze the incorporation of distinct fatty acids into the sphinganine backbone. TNFα-induced an impressive 8 and 5-fold increase in CerS1 and CerS4, respectively. These enzymes preferentially catalyze the production of ceramide species containing the stearate fatty acid.

[6] = Intralipid infusion, with or without myriocin or cycloserine
[7] = lard oil infusion, with or without myriocin or cycloserine

Molecule: C[C@@H]1C[C@H]2[C@@H]3CCC4=CC(=O)C=C[C@]4(C)[C@@]3(F)[C@@H](O)C[C@]2(C)[C@@]1(O)C(=O)CO [Dexamethasone]
Glucose, During Clamp (Sprague dawley rats [1]): 131.1 ± 5.1 mg/dL
increase in fasting blood glucose (Sprague-Dawley rats [2]): 13%
increase in fasting insulin concentrations (Sprague-Dawley rats [2]): 2.8 fold
Insulin, During Clamp (Sprague dawley rats [3]; steady state): 6.7 ± 1.3 ng/mL
FFA (Sprague dawley rats [3]; Before Clamp by layout): 211 ± 38 µM
Glucose, Before Clamp (Sprague dawley rats [3]): 139.0 ± 3.1 mg/dL
Insulin, Before Clamp (Sprague dawley rats [3]): 4.36 ± 2.34 ng/mL

Molecule: N[C@@H]1CON=C1O [L-cycloserine]
insulin-stimulated glucose disposal / insulin resistance (Sprague-Dawley rats [4]; [6]): Neither myriocin nor cycloserine prevented
muscle DAG levels (Sprague-Dawley rats [4]; [6]): Neither myriocin nor cycloserine prevented
ceramide in skeletal muscle (Sprague-Dawley rats [4]; [7]): blocked ceramide synthesis
diacylglycerol (DAG) in muscle (Sprague-Dawley rats [4]; [7]): Neither myriocin nor cycloserine reduced DAG
glucose utilization in clamp (Sprague-Dawley rats [4]; lard-infused animals): restored glucose utilization
Glucose, During Clamp (Sprague-Dawley rats [4]; Lipid: Glycerol): 111.0 ± 3.0 mg/dL
Glucose, During Clamp (Sprague-Dawley rats [4]; Lipid: Lard oil (PBS or drug)): 106.6 ± 2.6 mg/dL
Glucose, During Clamp (Sprague-Dawley rats [4]; Lipid: Soy oil (PBS or drug)): 106.2 ± 0.44 mg/dL
FFA, Before Clamp (Sprague-Dawley rats [4]; Lipid: Glycerol): 0.489 ± 0.10 mM
FFA, Before Infusion (Sprague-Dawley rats [4]; Lipid: Glycerol): 0.562 ± 0.10 mM
FFA, During Clamp (Sprague-Dawley rats [4]; Lipid: Glycerol): 0.501 ± 0.11 mM
Glucose, Before Clamp (Sprague-Dawley rats [4]; Lipid: Glycerol): 113.0 ± 3.2 mg/dL
Glucose, Before Infusion (Sprague-Dawley rats [4]; Lipid: Glycerol): 104.0 ± 13.1 mg/dL
Insulin, Before Clamp (Sprague-Dawley rats [4]; Lipid: Glycerol): 9.19 ± 0.20 ng/mL
Insulin, Before Infusion (Sprague-Dawley rats [4]; Lipid: Glycerol): 0.659 ± 0.11 ng/mL
Insulin, During Clamp (Sprague-Dawley rats [4]; Lipid: Glycerol): 12.08 ± 0.03 ng/mL
FFA, Before Clamp (Sprague-Dawley rats [4]; Lipid: Lard oil (PBS or drug)): 1.53 ± 0.19 mM
FFA, Before Infusion (Sprague-Dawley rats [4]; Lipid: Lard oil (PBS or drug)): 0.672 ± 0.14 mM
FFA, During Clamp (Sprague-Dawley rats [4]; Lipid: Lard oil (PBS or drug)): 2.12 ± 0.89 mM
Glucose, Before Clamp (Sprague-Dawley rats [4]; Lipid: Lard oil (PBS or drug)): 101.6 ± 7.1 mg/dL
Glucose, Before Infusion (Sprague-Dawley rats [4]; Lipid: Lard oil (PBS or drug)): 100.6 ± 6.4 mg/dL
Insulin, Before Clamp (Sprague-Dawley rats [4]; Lipid: Lard oil (PBS or drug)): 2.18 ± 0.76 ng/mL
Insulin, Before Infusion (Sprague-Dawley rats [4]; Lipid: Lard oil (PBS or drug)): 0.793 ± 0.15 ng/mL
Insulin, During Clamp (Sprague-Dawley rats [4]; Lipid: Lard oil (PBS or drug)): 16.27 ± 2.69 ng/mL
FFA, Before Clamp (Sprague-Dawley rats [4]; Lipid: Soy oil (PBS or drug)): 1.51 ± 0.23 mM
FFA, Before Infusion (Sprague-Dawley rats [4]; Lipid: Soy oil (PBS or drug)): 1.02 ± 0.32 mM
FFA, During Clamp (Sprague-Dawley rats [4]; Lipid: Soy oil (PBS or drug)): 2.10 ± 0.77 mM
Glucose, Before Clamp (Sprague-Dawley rats [4]; Lipid: Soy oil (PBS or drug)): 124.0 ± 10.8 mg/dL
Glucose, Before Infusion (Sprague-Dawley rats [4]; Lipid: Soy oil (PBS or drug)): 102.3 ± 7.1 mg/dL
Insulin, Before Clamp (Sprague-Dawley rats [4]; Lipid: Soy oil (PBS or drug)): 3.13 ± 1.0 ng/mL
Insulin, Before Infusion (Sprague-Dawley rats [4]; Lipid: Soy oil (PBS or drug)): 1.12 ± 0.17 ng/mL
Insulin, During Clamp (Sprague-Dawley rats [4]; Lipid: Soy oil (PBS or drug)): 14.38 ± 0.67 ng/mL
linoleate effects on 2-DOG uptake (soleus muscles; 1 mM linoleate): did not alter linoleate effects
linoleate effects on DAG accumulation (soleus muscles; 1 mM linoleate): did not alter linoleate effects
DAG in palmitate-treated muscles (soleus muscles; 1 mM palmitate): without affecting DAG
palmitate effect on insulin-stimulated 2-deoxyglucose uptake (soleus muscles; 1 mM palmitate): completely negated the antagonistic effects of palmitate
palmitate-induced ceramide accumulation (soleus muscles; 1 mM palmitate): prevented palmitate-induced ceramide accumulation

Molecule: CC1=C(/C=C/C(C)=C/C=C/C(C)=C/C(=O)Nc2ccc(O)cc2)C(C)(C)CCC1 [fenretinide]
inhibition of DES 1 (DES 1): inhibit DES 1

Molecule: Oc1ccc(C=Cc2cc(O)cc(O)c2)cc1 [resveratrol]
inhibition of DES 1 (DES 1): inhibit DES 1

expression of serine palmitoyltransferase subunits LCB1 and LCB2 (mRNA) [5]: increased expression
Molecule: TNFα
expression of glucosylceramide synthase (mRNA) [5]: markedly reduced expression
increase in CerS1 (mRNA) [5]: 8 fold
increase in CerS4 (mRNA) [5]: 5 fold
